Source: ChEMBL document CHEMBL3638701, “Inhibitors of protein kinases” (2015)

How the values were obtained:
[1] = target: Cyclin-dependent kinase 1 (Homo sapiens, UniProt P06493); assay: (§1) In Vitro Kinase Inhibition Assay: In vitro kinase assay analysis may be performed using standard techniques described in the art. These techniques are also used by commercial services providers in order to offer in vitro kinase activity assay services, e.g. the assays offered by Millipore Inc. (worldwide website www(dot)millipore.com), ProQinase GmbH (worldwide website www(dot)proqinase.de) and others. All kinase assays were performed in 96-well FlashPlates from Perkin Elmer/NEN (Boston, Mass., USA) in a 50ul reaction volume. The reaction mixture was pipetted in four steps in the following order: 20ul of assay buffer (standard buffer),5ul of ATP solution (in H2O, 5 ul of test compound (in 10% DMSO), 10ul of substrate/10ul of enzyme solution (premixed)The assay for all enzymes contained 60 mM HEPES-NaOH (pH 7.5), 3 mM MgCl2, 3 mM MnCl2, 3uM Na-Orthovanadate, 1.2 mM DTT, 50 ug/ml PEG2000, 1 uM [33P]-ATP (approx. 5x1005 cpm per well).
[2] = target: Glycogen synthase kinase-3 alpha (Homo sapiens, UniProt P49840); assay: as §1
[3] = target: Cyclin-dependent kinase 5 (Homo sapiens, UniProt Q00535); assay: as §1
[4] = target: Interleukin-1 receptor-associated kinase 1 (Homo sapiens, UniProt P51617); assay: as §1
[5] = target: Cyclin-dependent kinase 2 (Homo sapiens, UniProt P24941); assay: as §1
[6] = target: Cyclin-dependent kinase 7 (Homo sapiens, UniProt P50613); assay: as §1
[7] = target: Glycogen synthase kinase-3 beta (Homo sapiens, UniProt P49841); assay: as §1
[8] = target: Cyclin-dependent kinase 6 (Homo sapiens, UniProt Q00534); assay: as §1
[9] = target: Cyclin-dependent kinase 9 (Homo sapiens, UniProt P50750); assay: as §1
[10] = target: Cyclin-dependent kinase 3 (Homo sapiens, UniProt Q00526); assay: as §1
Cyclin-dependent kinase 3, sequence (Q00526 whole entry): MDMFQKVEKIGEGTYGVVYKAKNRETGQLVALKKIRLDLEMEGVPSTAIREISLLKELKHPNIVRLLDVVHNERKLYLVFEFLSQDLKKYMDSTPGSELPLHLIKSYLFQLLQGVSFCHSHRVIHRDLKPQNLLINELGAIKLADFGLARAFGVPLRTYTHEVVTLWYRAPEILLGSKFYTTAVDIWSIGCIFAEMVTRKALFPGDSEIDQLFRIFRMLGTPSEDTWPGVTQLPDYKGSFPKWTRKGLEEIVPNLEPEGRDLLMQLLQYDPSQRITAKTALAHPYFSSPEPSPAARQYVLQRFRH

Cyclin-dependent kinase 5, sequence (Q00535 whole entry): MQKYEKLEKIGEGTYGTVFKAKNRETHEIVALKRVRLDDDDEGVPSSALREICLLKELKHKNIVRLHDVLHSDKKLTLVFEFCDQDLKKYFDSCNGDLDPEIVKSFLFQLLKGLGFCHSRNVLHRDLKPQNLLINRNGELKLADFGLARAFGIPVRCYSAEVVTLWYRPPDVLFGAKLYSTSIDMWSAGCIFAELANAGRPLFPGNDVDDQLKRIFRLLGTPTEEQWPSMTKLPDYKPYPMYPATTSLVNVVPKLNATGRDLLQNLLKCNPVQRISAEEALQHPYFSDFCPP
Cyclin-dependent kinase 9, sequence (P50750 whole entry): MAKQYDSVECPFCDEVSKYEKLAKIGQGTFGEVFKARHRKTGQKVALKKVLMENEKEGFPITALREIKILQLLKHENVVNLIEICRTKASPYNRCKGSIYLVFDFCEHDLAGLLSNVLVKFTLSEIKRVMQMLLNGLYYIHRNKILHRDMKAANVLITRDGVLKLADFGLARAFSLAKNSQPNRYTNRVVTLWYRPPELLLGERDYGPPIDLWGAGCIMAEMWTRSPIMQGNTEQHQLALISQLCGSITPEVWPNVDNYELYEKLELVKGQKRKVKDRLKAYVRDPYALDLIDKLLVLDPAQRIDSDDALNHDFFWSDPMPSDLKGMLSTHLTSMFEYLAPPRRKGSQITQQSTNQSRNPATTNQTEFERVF
Glycogen synthase kinase-3 alpha, sequence (P49840 whole entry): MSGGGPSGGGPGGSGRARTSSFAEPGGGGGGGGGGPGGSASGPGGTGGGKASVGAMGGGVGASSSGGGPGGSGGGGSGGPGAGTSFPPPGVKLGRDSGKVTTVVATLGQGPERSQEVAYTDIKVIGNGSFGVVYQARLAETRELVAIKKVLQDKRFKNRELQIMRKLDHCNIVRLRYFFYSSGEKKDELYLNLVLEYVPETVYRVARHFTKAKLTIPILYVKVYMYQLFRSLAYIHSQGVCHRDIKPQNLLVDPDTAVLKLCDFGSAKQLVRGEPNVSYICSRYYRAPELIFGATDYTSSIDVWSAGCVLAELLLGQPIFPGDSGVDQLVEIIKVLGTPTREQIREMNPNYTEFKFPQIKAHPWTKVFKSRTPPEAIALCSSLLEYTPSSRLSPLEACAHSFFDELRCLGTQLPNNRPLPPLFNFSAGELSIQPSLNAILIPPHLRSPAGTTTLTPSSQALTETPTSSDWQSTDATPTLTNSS
Cyclin-dependent kinase 6, sequence (Q00534 whole entry): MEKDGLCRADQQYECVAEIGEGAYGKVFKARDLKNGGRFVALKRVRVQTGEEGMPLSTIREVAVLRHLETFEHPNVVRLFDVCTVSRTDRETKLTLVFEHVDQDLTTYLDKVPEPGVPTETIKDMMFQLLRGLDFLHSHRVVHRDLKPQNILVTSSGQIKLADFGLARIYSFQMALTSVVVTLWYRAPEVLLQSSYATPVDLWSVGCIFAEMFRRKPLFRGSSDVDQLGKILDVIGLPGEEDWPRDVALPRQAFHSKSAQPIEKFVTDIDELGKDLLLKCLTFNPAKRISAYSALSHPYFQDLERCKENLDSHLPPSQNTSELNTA
Interleukin-1 receptor-associated kinase 1, sequence (P51617 whole entry): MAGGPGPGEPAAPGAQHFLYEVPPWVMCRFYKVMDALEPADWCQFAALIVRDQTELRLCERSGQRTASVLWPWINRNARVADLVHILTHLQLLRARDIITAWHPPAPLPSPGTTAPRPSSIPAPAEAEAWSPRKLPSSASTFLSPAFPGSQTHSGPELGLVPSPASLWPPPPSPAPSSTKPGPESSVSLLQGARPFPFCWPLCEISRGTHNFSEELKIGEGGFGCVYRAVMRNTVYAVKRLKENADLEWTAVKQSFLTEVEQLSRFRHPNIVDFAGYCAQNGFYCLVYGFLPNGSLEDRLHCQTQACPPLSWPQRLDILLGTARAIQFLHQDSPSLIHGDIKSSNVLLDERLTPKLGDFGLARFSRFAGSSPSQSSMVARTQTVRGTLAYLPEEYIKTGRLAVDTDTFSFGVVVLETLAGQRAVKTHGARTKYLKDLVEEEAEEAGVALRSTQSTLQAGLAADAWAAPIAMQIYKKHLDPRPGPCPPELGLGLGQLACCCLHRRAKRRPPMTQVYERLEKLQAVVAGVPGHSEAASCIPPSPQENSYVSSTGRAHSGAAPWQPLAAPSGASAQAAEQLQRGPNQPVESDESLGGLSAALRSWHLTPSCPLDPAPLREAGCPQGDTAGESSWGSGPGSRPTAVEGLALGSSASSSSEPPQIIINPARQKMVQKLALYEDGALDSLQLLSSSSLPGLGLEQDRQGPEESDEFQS
Glycogen synthase kinase-3 beta, sequence (P49841 whole entry): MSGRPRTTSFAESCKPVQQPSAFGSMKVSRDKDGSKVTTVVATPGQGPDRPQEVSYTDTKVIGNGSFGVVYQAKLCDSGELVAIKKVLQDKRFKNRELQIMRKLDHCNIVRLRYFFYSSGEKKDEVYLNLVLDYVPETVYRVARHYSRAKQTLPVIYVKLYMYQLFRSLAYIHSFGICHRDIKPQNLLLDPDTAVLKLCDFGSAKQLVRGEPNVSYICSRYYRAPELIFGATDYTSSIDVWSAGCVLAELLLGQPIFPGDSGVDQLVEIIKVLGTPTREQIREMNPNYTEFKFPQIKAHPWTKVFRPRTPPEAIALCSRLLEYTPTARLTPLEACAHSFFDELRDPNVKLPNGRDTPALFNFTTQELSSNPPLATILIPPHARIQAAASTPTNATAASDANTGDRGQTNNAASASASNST
Cyclin-dependent kinase 7, sequence (P50613 whole entry): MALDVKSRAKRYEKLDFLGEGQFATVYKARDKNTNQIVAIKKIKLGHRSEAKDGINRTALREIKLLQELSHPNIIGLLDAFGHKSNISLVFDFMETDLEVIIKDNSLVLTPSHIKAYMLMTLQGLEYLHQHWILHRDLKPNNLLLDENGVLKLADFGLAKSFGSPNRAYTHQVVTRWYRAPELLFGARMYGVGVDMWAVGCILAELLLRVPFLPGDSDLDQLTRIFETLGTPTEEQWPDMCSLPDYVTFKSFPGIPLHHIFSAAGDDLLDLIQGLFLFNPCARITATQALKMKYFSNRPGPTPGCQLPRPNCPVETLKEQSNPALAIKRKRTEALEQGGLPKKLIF
Cyclin-dependent kinase 1, sequence (P06493 whole entry): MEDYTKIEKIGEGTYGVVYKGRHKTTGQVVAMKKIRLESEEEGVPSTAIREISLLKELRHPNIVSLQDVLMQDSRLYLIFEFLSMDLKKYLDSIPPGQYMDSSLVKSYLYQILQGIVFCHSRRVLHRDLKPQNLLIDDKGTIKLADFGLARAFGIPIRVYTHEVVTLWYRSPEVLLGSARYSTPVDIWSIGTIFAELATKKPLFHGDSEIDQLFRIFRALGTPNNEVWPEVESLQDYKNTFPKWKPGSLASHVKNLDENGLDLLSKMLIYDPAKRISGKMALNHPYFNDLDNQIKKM

COc1cc(F)ccc1-c1ccnc(NC(=O)[C@@H]2CC[C@H](NC(C)=O)C2)c1
IC50 [1]: 1880 nM
IC50 [2]: 99 nM
IC50 [3]: 1340 nM
IC50 [4]: > 5000 nM
IC50 [5]: 913 nM
IC50 [6]: > 5000 nM
IC50 [7]: 857 nM
IC50 [8]: > 5000 nM
IC50 [9]: 10 nM
IC50 [10]: 1450 nM
